The values that follow come from PubChem BioAssay (NCI).

What all share (assay): NCI tumour cell line growth inhibition, 48 h
Experiment [1] concerns SN12C renal.
The subject of experiment [2] is SF-539 CNS.
Experiment [3] concerns UACC-257 melanoma.
Experiment [4] relates to SK-OV-3 ovarian.
In experiment [5] the test system is DU-145 prostate.
The test system of experiment [6] is MCF7 breast.
Experiment [7] relates to NCI-H460 lung.
Experiment [8] relates to U251 CNS.
The subject of experiment [9] is RXF 393 renal.
Experiment [10] deals with HT29 colon.

Several values for one entry are separate records, joined by “and”; a condition that tells them apart may be missing. Identical values can stand only once.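 Values below derive from 48-hour exposures of cells grown in 96-well plates, with endpoints linearly interpolated between the two concentrations bracketing the appropriate inhibition level. Abbreviation: GI50, concentration required for 50% inhibition of growth. Definition used: TGI = concentration required for complete inhibition of growth.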 *1 amine or outer side, *2 acyl side, *3 side chain or, on linkers, in order; H or OH if unused. Where a SMILES comes first, the peptide text is derived from it. Bridges are numbered along the chain shown (N, C = ends). Roman numbers before positions name the chains, in order. [ ]: non-standard residue; d: D form. Actinocin(9to1) = Cc1c2oc3c(C)ccc(C(=O)[*:1])c3nc-2c(C(=O)[*:2])c(N)c1=O; NMeT = CN[CH](C(=O)O)[CH](C)O; Sar = CNCC(=O)O

For `Cc1cc(O)cc2c1[C@]1(C)CCC3C(C)(C)CCC[C@]3(C)[C@H]1C2` (stereo partly specified), the GI50 in experiment [1] was 17.2 µM; in experiment [2] it was 20.6 µM; in [3], 23.6 µM; in [4] it was 21.9 µM; in experiment [5] it was 19.1 µM; in experiment [6], 18600 nM. The GI50 in experiment [7] is 20600 nM; in [8] it was 19200 nM; in [9] it was 25 µM; in experiment [10] it was 18.5 µM. For the same compound, the TGI worked out at 32.3 µM in experiment [1]; 37.9 µM in [2]; 41.3 µM in experiment [3]; 38.6 µM in [4]; 35 µM in [5]; 33.3 µM in experiment [6]. Moreover, the TGI in experiment [7] came out at 37.1 µM; in experiment [8] it was 33.5 µM; in [9], 50.4 µM; in experiment [10] it was 35.5 µM.

On to `C=C(CN1CCN(c2cccc(C(F)(F)F)n2)CC1)c1ccc(C(=O)Nc2ccccc2N)cc1`, for which the GI50 in [1] is 3.79 µM and 0.797 µM; in [2] it was 0.978 µM and 0.331 µM; in [4], 2.55 µM and 0.634 µM; in experiment [5], 1.46 µM and 0.634 µM; in experiment [6] it was 349 nM and 293 nM; in [7] it was 640 nM and 370 nM. Also, the GI50 in experiment [8] was 1160 nM and 429 nM; in experiment [9], 0.672 µM and 2.12 µM; in experiment [10], 0.565 µM and 0.341 µM. The TGI in experiment [1] was more than 100 µM; in experiment [2], 16.8 µM and 2.05 µM; in experiment [3], more than 100 µM; in [4], 42.4 µM and 21.2 µM; in experiment [5], more than 100 µM; in experiment [6] it was more than 100 µM. Besides, the TGI was more than 100 µM in experiment [7]; 34.4 µM and 12.8 µM in [8]; 26.1 µM and > 100 µM in [9].

With `COc1cc2c(cc1OC)-c1ccc3cc4c(cc3c1N(CCCn1ccnc1)C2)OCO4`, the GI50 is 0.382 µM in experiment [1]; 2.11 µM in experiment [2]; 5.9 µM in experiment [3]; 3.84 µM in experiment [4]; 3.21 µM in experiment [5]; 364 nM in [6]. The GI50 in experiment [7] was 527 nM; in experiment [8], 1020 nM; in experiment [9], 3.43 µM; in experiment [10] it was 3.22 µM. For the same compound, the TGI in [1] was 16.9 µM; in experiment [2] it was 7.36 µM; in experiment [3], 23.3 µM; in experiment [4], 26.8 µM; in experiment [5], 34.5 µM; in experiment [6], 74.1 µM. The TGI was 11.3 µM in experiment [7], 3.97 µM in [8], 16.3 µM in experiment [9] and 30.7 µM in experiment [10].

As for `CCC(=O)Nc1ccccc1C#C/C=C\C#Cc1ccccc1SC`, the GI50 was 26.7 µM in experiment [1]; 14.2 µM in experiment [2]; 12.1 µM in experiment [3]; 53.7 µM in [4]; 40.5 µM in experiment [5]; 3390 nM in experiment [6]. Besides, the values for the GI50 in experiment [7], in [8] and in experiment [10] were 3400 nM, 6430 nM and 5.2 µM, respectively. For the same compound, the TGI is more than 100 µM in [1]; more than 100 µM in experiment [2]; 59.2 µM in experiment [3]; more than 100 µM in experiment [4]; more than 100 µM in experiment [5]; 29.7 µM in experiment [6]. Besides, the TGI in [7] was more than 100 µM; in [8], more than 100 µM; in experiment [9] it was 1.84 µM; in [10] it was more than 100 µM.

For the compound `CCN(Cc1ccccc1)c1ccc(CO)c(Cl)c1`, the GI50 in experiment [1] was 19.8 µM; in experiment [2] it was 30.2 µM; in [3] it was 0.131 µM; in [4], 5.78 µM; in [5], 22.5 µM; in experiment [6] it was 338 nM. Further, the GI50 is 327 nM in [7], 1000 nM in [8], 6.01 µM in experiment [9] and 3.07 µM in [10]. Further, the TGI is more than 100 µM in [1]; more than 100 µM in experiment [2]; 0.316 µM in [3]; 35.6 µM in [4]; more than 59.4 µM in [5]; 25.9 µM in experiment [6]. Also, the TGI in experiment [7] is 13.9 µM; in experiment [8], 50.1 µM; in experiment [9], more than 49.7 µM; in [10], 36.3 µM.

On to `Cc1ccc2c(-c3ccnc(Nc4ccccc4)n3)c(-c3ccc(F)cc3)nn2n1`, for which the GI50 was 4.85 µM in [1]; 6.99 µM in [2]; 6.85 µM in [3]; 1.39 µM in experiment [4]; 7.59 µM in [5]; 7440 nM in [6]. Besides, the GI50 in experiment [7] is 5240 nM; in experiment [8], 9800 nM; in [9], 3.77 µM; in [10], 2.34 µM. The TGI is more than 25 µM in experiment [1]; more than 19.3 µM in experiment [2]; 15.1 µM in [3]; more than 25 µM in [4]; more than 25 µM in experiment [5]; more than 25 µM in experiment [6]. In addition, the TGI is 15.1 µM in [7], more than 25 µM in experiment [8], more than 18.7 µM in experiment [9] and more than 19.2 µM in experiment [10].

For the compound `Cc1c2oc3c(C)ccc(C(=O)NC4C(=O)NC(C(C)C)C(=O)N5CCCC5C(=O)N(C)CC(=O)N(C)C(C(C)O)C(=O)OC4C)c3nc-2c(C(=O)NC2C(=O)NC(C(C)C)C(=O)N3CCCC3C(=O)N(C)CC(=O)N(C)C(C(C)O)C(=O)OC2C)c(N)c1=O` (stereo unspecified) (I: TVP[Sar][NMeT] / II: TVP[Sar][NMeT]; ester I:1-I:C, II:1-II:C; linker I:N-II:N via Actinocin(9to1); configuration not given here), the TGI in experiment [1] is 42.8 µM and > 1 µM; in experiment [2] it was 18 µM and > 1 µM; in experiment [3], 25.1 µM and > 1 µM; in experiment [4] it was more than 100 µM; in [5] it was more than 100 µM; in [6], more than 1 µM. Besides, the TGI was 4.95 µM and > 1 µM in experiment [7]; 7.27 µM and > 1 µM in experiment [8]; 2.95 µM and > 1 µM in experiment [9]; more than 100 µM in experiment [10]. For the same compound, the GI50 in experiment [3] is 2.09 µM and > 1 µM; in [4] it was 5.75 µM and > 1 µM; in experiment [5], 5.98 µM and > 1 µM; in experiment [10] it was 3.17 µM and 0.724 µM.
